# Earlier results as cited in patent US20180344690A1, “Methods and Formulation for Enhancing Response to Radiotherapy” (The Board of Trustees of the Leland Stanford Junior …, priority 2017, published 2018).
# Like-named read-outs stand apart in the source and are kept apart here.
# Key:
# Conditions in all cases: cited from earlier work
# CD34+ cells = test system: CD34+ cells
# CD34+ stem cells = test system: CD34+ stem cells
# AML and MDS = test system: AML and MDS
# [1] = test system: chronic lymphocytic leukemia (CLL)
# CXCR4 = CXCR4 (Homo sapiens, UniProt P61073)
# [2] = cells collected by Plerixafor plus G-CSF
# Sequence of CXCR4 (P61073 whole entry): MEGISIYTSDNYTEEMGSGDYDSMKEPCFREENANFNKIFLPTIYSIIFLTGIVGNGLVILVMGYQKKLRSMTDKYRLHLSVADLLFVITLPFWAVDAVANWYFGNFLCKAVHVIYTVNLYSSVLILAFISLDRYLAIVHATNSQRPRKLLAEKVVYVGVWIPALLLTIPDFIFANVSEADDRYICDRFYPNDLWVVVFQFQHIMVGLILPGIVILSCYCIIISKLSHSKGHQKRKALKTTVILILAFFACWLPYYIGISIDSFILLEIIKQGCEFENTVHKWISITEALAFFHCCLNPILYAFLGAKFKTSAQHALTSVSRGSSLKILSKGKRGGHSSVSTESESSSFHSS
smiles,measurement,setting,value
c1cc(CN2CCCNCCNCCCNCC2)ccc1CN1CCCNCCNCCCNCC1 [Plerixafor],patients achieving ≥5×10^6 CD34+ cells/kg,CD34+ cells; Plerixafor plus G-CSF compared to G-CSF alone,More patients
same,CD34+ cells mobilized in patients who mobilized poorly with G-CSF alone,"CD34+ cells; Plerixafor plus G-CSF, nine patients, all patients",> 2×10^6 CD34+ cells/kg
same,median day of platelet engraftment,CD34+ cells; [2],17 days
same,median day of polymorphonuclear leukocyte (PMN) engraftment,CD34+ cells; [2],10 days
same,drug-related serious or unexpected adverse effects,"CD34+ cells; human, in vivo",no drug-related serious adverse effects or unexpected adverse effects
same,proportion of patients with NHL able to mobilize minimum (2×10^6 cells/kg) and target (5×10^6 cells/kg) CD34+ cells,CD34+ stem cells; Plerixafor 240 μg/kg added to G-CSF,significantly increased the proportion of patients
same,apheresis days to reach both targets,CD34+ stem cells; Plerixafor added to G-CSF,significantly fewer apheresis days
same,early death due to complications from intracranial hemorrhage,AML and MDS; 1 patient,4%
same,treatment failure due to persistent disease,AML and MDS; 1 patient,4%
same,Grade I-II GVHD,AML and MDS; 10/27 patients,37%
same,treatment failure due to relapsed disease,AML and MDS; 10 patients,37%
same,patients with common grade 3 adverse events,"AML and MDS; 24/27, neutropenic fever, infections, or rash",89%
same,Median progression-free survival (PFS),"AML and MDS; all patients, 95% CI: 18.1-33.9 wks",26.6 wks
same,Grade III-IV GVHD,"AML and MDS; human, in vivo, iv",no occurrences
same,toxicities ascribed to the G-CSF/Plerixafor component of the regimen,"AML and MDS; human, in vivo",no toxicities ascribed
same,patients achieving a CR,AML and MDS; of the 19 patients with active disease at study entry,18
same,"platelet recovery (plt >20 k/mm3), median",AML and MDS; range 9-74 d,12 days
same,"neutrophil recovery (ANC >500/mm3), median",AML and MDS; range 10-19,12.5 days
same,Median progression-free survival (PFS),"AML and MDS; relapsed patients, 95% CI: 12.1-26.6 wks",15.7 wks
same,mobilization of CLL cells,"[1]; 80, 160, 240, 320 μg/kg, preliminary results",mobilized to the peripheral blood in a dose-dependent fashion
same,tolerability of the combination of Plerixafor and rituximab,[1]; CLL patients with WBC <50×109/L,well tolerated
same,dose limiting toxicities,[1]; with rituximab,no dose limiting toxicities were reported
same,most common adverse events,[1]; with rituximab,"nausea, fatigue, chills, and diarrhea"
same,remissions,[1]; with rituximab,partial remissions were seen in a proportion of patients
same,inhibition of the binding of SDF-1a (CXCL12) to CXCR4,CXCR4,reversible inhibitor
